{"source": "paper PMC7305224", "about": "“Mutually stabilizing interactions between proto-peptides and RNA” (Nature Communications, 2020)", "test_system": "single-stranded 10mer RNA (5′-rCrGrArUrUrUrArGrCrG-3′)", "assay": "Depsipeptide hydrolysis assay with single-stranded RNA", "assay_type": "physicochemical", "settings": "25 μM depsipeptide, single-stranded 10mer RNA 100 µM, 37 °C, pH 7.3 buffer, HPLC", "procedure": "To determine the extent of depsipeptide hydrolysis, the depsipeptide (25 μM) was incubated at 37 °C in buffer (100 mM HEPES, 10 mM NaCl, pH 7.3) in the presence or absence of 10mer RNA duplex 1 (5′-rCrGrArUrUrUrArGrCrG-3′ and 3′-rGrCrUrArArArUrCrGrC-5′) at various concentrations, or with single-stranded RNA (5′-rCrGrArUrUrUrArGrCrG-3′, 100 μM), for up to 100 h. Prior to adding depsipeptide to the reaction from its stock solution, the RNA was annealed by heating to 75 °C for 5 min, and then slowly cooling to room temperature. Reaction aliquots were quenched using 3% TFA and frozen or immediately analyzed by HPLC (270 nm). The relative concentrations of intact and hydrolyzed depsipeptide were quantified by integrating the corresponding peaks in HPLC traces. The kinetic profiles of depsipeptide hydrolysis were fit using SimFit-32 (provided by G. von Kiedrowski) according to the reaction scheme shown in Fig. 5a.", "data": [{"substance": "Aba-Gly-Ala-Dab-Lys-Ala-Dab-Lys-lac-Dab-Lys-Ala-Dab-Lys-NH2 [compound 9]", "values": [{"measurement": "increase of depsipeptide lifetime by single-stranded RNA", "value": "roughly fivefold"}]}]}
